These are literature values, as cited in EP3051247B1, “CHEMICAL CLEANING PROCEDURE FOR HEAT EXCHANGERS” (GD Energy Services S.a.r.l., priority 2013, dated 2015).

The conditions of this data set: for pKa1: first acid dissociation step (AH3 → AH2^- + H^+; BH2 → BH^- + H^+); for pKa2: second acid dissociation step (AH2^- → AH^2- + H^+; BH^- → B^2- + H^+).

With `O=C1O[C@H]([C@@H](O)CO)C(O)=C1O` [Ascorbic acid], the pKa1 result is given as “pKa1 = 4.1” and the pKa2 entry is on record as “pKa2 = 11.4”.

For the molecule `O=C(O)CC(O)(CC(=O)O)C(=O)O` [Citric acid], the pKa1 result is reported as “pKa1 = 3.15” and the pKa2 entry is on record as “pKa2 = 4.77”. For the same molecule, the pKa3 result (third acid dissociation step (AH^2- → A^3- + H^+)) is “pKa3 = 6.40”.
